# Tests used:
# [1] = molecular target: Lysine-specific histone demethylase 1A (Homo sapiens, UniProt O60341); assay: LSD1 Screening Assay; details: pH 7.5; 25 °C
# Description: The LSD1 screening biochemical assay was performed by Shanghai ChemPartner Co. Ltd and the detailed protocol was shown as followed. The AlphaLISA assay of LSD1 (BPS Bioscience) was performed in modified Tris buffer (pH 7.5). Briefly, the compoundsin DMSO were transferred to assay plate by Echo 550, followed by pre-incubating with enzyme (final concentration is 5 nM) for 15 min at room temperature. The initiation of reactions were added H3K4me2 peptide solution (final concentration is 100 nM) to the reaction mixtures and then incubated for 60 min at roomtemperature. The reactions were terminated by the addition of the acceptor and donor beads mix (PerkinElmer) and incubated for 60 min at room temperature, and finally read on EnSpire (PerkinElmer) in Alpha Mode.
# [2] = molecular target: T1, Amine oxidase [flavin-containing] A (Homo sapiens, UniProt P21397); assay: MAO-A and MAO-B Assay
# T1 sequence (P21397 whole entry): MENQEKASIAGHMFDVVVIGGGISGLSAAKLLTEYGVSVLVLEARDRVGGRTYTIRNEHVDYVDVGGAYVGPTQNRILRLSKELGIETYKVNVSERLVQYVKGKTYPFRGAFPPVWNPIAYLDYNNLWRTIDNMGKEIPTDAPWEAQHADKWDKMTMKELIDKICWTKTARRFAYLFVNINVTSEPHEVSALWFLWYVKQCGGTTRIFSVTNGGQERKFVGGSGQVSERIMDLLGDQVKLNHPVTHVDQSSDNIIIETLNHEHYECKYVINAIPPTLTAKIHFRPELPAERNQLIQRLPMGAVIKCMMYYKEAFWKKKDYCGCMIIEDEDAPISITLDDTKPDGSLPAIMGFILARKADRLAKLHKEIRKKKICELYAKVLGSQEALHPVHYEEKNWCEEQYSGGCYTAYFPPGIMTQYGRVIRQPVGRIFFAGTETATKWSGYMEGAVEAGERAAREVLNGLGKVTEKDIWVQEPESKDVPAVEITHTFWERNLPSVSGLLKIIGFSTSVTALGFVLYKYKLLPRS
# Text: (§1) The MAO-A and MAO-B is purchased from Active Motif (Cat#31502, Cat#31503). Biochemical Kit is purchased from Promega (MAO-Glo Assay, V1402). The inhibition of selectivity assay was preformed in light of the manufacturer's protocol.
# [3] = molecular target: T2, Amine oxidase [flavin-containing] B (Homo sapiens, UniProt P27338); assay: MAO-A and MAO-B Assay
# T2 sequence (P27338 whole entry): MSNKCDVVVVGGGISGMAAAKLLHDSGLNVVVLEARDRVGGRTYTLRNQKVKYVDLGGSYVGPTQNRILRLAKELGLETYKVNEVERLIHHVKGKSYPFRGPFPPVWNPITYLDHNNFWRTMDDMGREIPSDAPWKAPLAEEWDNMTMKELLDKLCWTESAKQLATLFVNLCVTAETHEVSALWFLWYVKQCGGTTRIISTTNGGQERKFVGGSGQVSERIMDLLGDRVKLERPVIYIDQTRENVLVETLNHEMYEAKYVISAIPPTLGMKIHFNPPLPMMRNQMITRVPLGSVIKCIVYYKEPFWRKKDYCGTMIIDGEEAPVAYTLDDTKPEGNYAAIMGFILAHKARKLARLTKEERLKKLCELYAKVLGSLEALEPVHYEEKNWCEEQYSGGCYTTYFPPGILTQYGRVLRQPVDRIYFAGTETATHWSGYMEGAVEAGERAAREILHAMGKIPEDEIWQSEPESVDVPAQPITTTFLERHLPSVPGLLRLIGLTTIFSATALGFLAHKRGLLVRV
# Text: as §1
smiles,measurement,setting,value
"C/C(=N\NC(=O)c1cccc(S(=O)(=O)N2CCOCC2)c1)c1cc(Cl)ccc1O [US8987335, 12]",IC50,[1],0.011 µM
"CN(CC(=O)Nc1cccc(S(=O)(=O)N(C)C)c1)c1cc(Cl)ccc1O [2-((5-Chloro-2-hydroxyphenyl)(methyl)amino)-N-(3-(N,N-dimethylsulfamoyl)phenyl)acetamide (7e)]",IC50,[1],13 µM
CC(Nc1cc(Cl)ccc1O)C(=O)Nc1cccc(S(=O)(=O)N(C)C)c1 (stereo not drawn),IC50,[1],12 µM
"CN(C)S(=O)(=O)c1cccc(NC(=O)CNc2cc(Cl)ccc2O)c1 [2-((5-Chloro-2-hydroxyphenyl)amino)-N-(3-(N,N-dimethylsulfamoyl)phenyl)-acetamide (7d)]",IC50,[1],14 µM
O=C(CNc1cc(Cl)ccc1O)Nc1cccc(S(=O)(=O)N2CCOCC2)c1 [2-((5-Chloro-2-hydroxyphenyl)amino)-N-(3-(morpholinosulfonyl)phenyl)acetamide (7a)],IC50,[1],13 µM
CN(CC(=O)Nc1cccc(S(=O)(=O)N2CCCCC2)c1)c1cc(Cl)ccc1O [2-((5-Chloro-2-hydroxyphenyl)(methyl)amino)-N-(3-(piperidin-1-ylsulfonyl)phenyl)acetamide (7g)],IC50,[1],11 µM
CC(Nc1cc(Cl)ccc1O)C(=O)Nc1cccc(S(=O)(=O)N2CCOCC2)c1 (stereo not drawn) [2-((5-Chloro-2-hydroxyphenyl)amino)-N-(3-(morpholinosulfonyl)phenyl)propanamide (7c)],IC50,[1],13 µM
CC(Nc1cc(Cl)ccc1O)C(=O)Nc1cccc(S(=O)(=O)N2CCCCC2)c1 (stereo not drawn) [2-((5-Chloro-2-hydroxyphenyl)amino)-N-(3-(piperidin-1-ylsulfonyl)phenyl)propanamide (7h)],IC50,[2],114 µM
same,IC50,[3],102 µM
same,IC50,[1],6.9 µM
CN(CC(=O)Nc1cccc(S(=O)(=O)N2CCOCC2)c1)c1cc(Cl)ccc1O [2-((5-Chloro-2-hydroxyphenyl)(methyl)amino)-N-(3-(morpholinosulfonyl)phe-nyl)acetamide (7b)],IC50,[2],187 µM
same,IC50,[3],65.7 µM
same,IC50,[1],9.5 µM

# — BindingDB's records for doi:10.1016/j.bioorg.2017.04.006 (China Pharmaceutical University, 2017)
